According to patent US9522260B2, “Apparatus for the controlled release of topical nitric oxide” (University of Windsor, priority 2011, dated 2016):

Experiment: Thermal and storage stability of AuNP nanocomposites and SNOG
Format: physicochemical
Procedure: All of the AuNP-nanocomposites i) to iv) as well as SNOG solutions 1 mM, dissolved in distilled deionized water and containing 100 μM diethylenetriaminepentaacetic acid (DPTA) a metal chelator were stored at 5° C., 25° C. and 55° C. for 1 month. These components were then added to the testing apparatus 90 (FIG. 3) and their NO-release characteristics were compared to fresh samples.
In one simplest and most cost effective manner to prepare an AuNP-nanocomposite, cotton gauze with AuNP (˜10 nm) is prepared by a conventional citrate reduction method.
SNOG solutions (1 mM) containing DPTA (0.1 mm) decomposed ˜5% upon incubation at 40° C. for 7 days. Stability of the SNOG may be increased further by either suspending it in polyethylene glycol or dissolving it in glycerol.

N[C@@H](CCC(=O)N[C@@H](CSN=O)C(=O)NCC(=O)O)C(=O)O [SNOG, S-nitrosoglutathione]
decomposition of SNOG solution (SNOG solutions (1 mM) containing DPTA (0.1 mm), incubation at 40° C. for 7 days): ~5%
thermal stability of solid SNOG (solid, storage at 40° C. for one week, preliminary experiments): thermally stable
